According to US20220062233A1 (The Board of Trustees of the Leland Stanford Junior …, priority 2018, published 2022):

What was measured:
[1] = tested on: mutant HTT; assay: Mutant HTT assay in induced pluripotent stem cells (iPSC); assay type: cell-based, human; details: HD patient iPSCs, one day incubation, read-out: iPSC IC20 (nM) mHTT
Experimental: C. Mutant HTT Assay in Induced Pluripotent Stem Cells (iPSC) a. Cell Culturing and Compound Treatment
Huntington's disease patient iPSCs (ND50036 from NINDS) were detached into single cells by Accutase (25058CI from Corning), counted and plated on a 24-well plate coated with Matrigel (354277 from Corning) at density of 7,000 cells/well. After 48 hrs, compounds were added to the cell culture medium mTeSR1 (85850 from StemCell Technologies) and the cells were incubated for one day. The medium was then removed, and the cells were washed with PBS. After all liquid was removed, the plate was placed at −80° C. overnight. Lysis buffer [30 mM Tris-HCl (pH 8.0), 5 mM NaCl, 0.1% Triton X-100] with the complete proteinase inhibitor cocktail (5892791001 from Sigma-Aldrich) was then added to the cells. Cell samples were lysed on an orbital plate shaker at 4° C. at 700 rpm for 30 min. The supernatants from spinning (14 k rpm for 10 min) were collected. The protein concentrations were determined by BCA assay (23225 from Pierce, ThermoFisher). […]
b. Detection of Mutant HTT Protein
Equal amounts of protein lysate collected from each sample were added to a 96-well plate that had been coated with a human HTT specific monoclonal antibody. After washing away any unbound substances, a biotinylated anti-human mutant HTT specific detection antibody was added. Streptavidin-horseradish peroxidase was subsequently added, followed by TMB Substrate Solution, which yielded a blue product that turns yellow when the Stop Solution was added. The intensity of the color measured was in proportion to the amount of mutant HTT bound in the initial step. The mutant HTT values are then interpolated from a standard curve.

[2] = tested on: wild-type HTT; assay: Wild-type HTT assay in lymphoblastoid cells (LBC), Western blot; assay type: cell-based, human; details: 3 days compound treatment, read-out: LBC IC20 (nM) wtHTT
Experimental: (§1) B. Mutant and Wild-Type HTT Assay in Lymphoblastoid Cells (LBC)
(§2) a. Cell Culturing and Compound Treatment
(§3) Lymphoblastoid cells derived from a Huntington's disease patient with 250 CAG repeats in the mutant HTT allele (GM14044 from Coriell Institute) were cultured in RPMI 1640 (Corning Cellgro, 10-040-CV) containing fetal bovine serum (Atlanta Biologicals, S11150). 4×10^5 cells were seeded on a 24-well plate and incubated with testing compound for 3 days. The cell suspension was then transferred to a 1.5 ml Eppendorf tube. Cells were collected by centrifugation and washed once with PBS. After all liquid was removed, the cell pellet was placed at −80° C. for at least 10 minutes. Lysis buffer [30 mM Tris-HCl (pH 8.0), 5 mM NaCl, 0.1% Triton X-100] with the proteinase inhibitor cocktail (P8340 from Sigma-Aldrich) was then added to the cells. Following centrifugation (14 k rpm for 15 min at 4° C.), the supernatant was collected. The protein concentrations were determined by BCA assay (Pierce, ThermoFisher).
(§4) Equal amounts of protein were loaded onto 4-12% gel (Invitrogen, WG1403A). After electrophoresis, the gels were transferred to nitrocellulose membranes by wet transfer at 72V for 3 hrs. […] The protein levels of mutant HTT, wild-type HTT, TBP, and tubulin were determined by immunoblotting with anti-polyQ specific antibody (clone MW1), anti-Huntingtin antibody (Abcam, ab45169), anti-TBP antibody (Sigma, T1827) and anti-alpha tubulin antibody (Sigma, T9026). Blots were imaged on a Li-Cor Odyssey infrared imager. The band intensities were determined by Li-Cor Odyssey software.

[3] = tested on: M2-8 cells; assay: M2-8 Cell viability Assay; assay type: cell-based; details: at the concentration of 1000 nM
[4] = tested on: Lymphoblastoid cells (GM14044); assay: LBC cell viability (Cell Titer-Glo); assay type: cell-based, human; details: at the concentration of IC20, 3-day compound treatment
Experimental: Cell viability was determined by Cell Titer-Glo reagent (Promega, PRG9243). After 3-day compound treatment, 15 μl of cell suspension was taken out from plate and incubated with 10 μl of CTG reagent. The values of reaction mixture were detected by Tecan.

[5] = target: T1, interaction between Supt4h and NGN (subunit of Supt5h) (Homo sapiens, UniProt O00267+P63272); assay: Split Gaussia luciferase complementation assay (M2-8 Luciferase); assay type: cell-based; details: M2-8 cells
T1 construct: expressed in transfected cells
Method in brief: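 HEK293-derived M2-8 cells inducibly express Supt4h-Gluc1 and NGN-Gluc2 fragments (stabilizing mutations) on RheoSwitch ligand addition; ligand plus compound added 24 h after plating and left 24 h. Cells frozen, lysed with 10 μg/ml native coelenterazine, 1 h room temperature dark; complemented luciferase luminescence read.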

[6] = tested on: Huntington's disease patient iPSCs (ND50036); assay: iPSC viability at IC20; assay type: cell-based, human; details: at the concentration of IC20
[7] = tested on: mutant HTT; assay: Mutant HTT assay in lymphoblastoid cells (LBC), Western blot; assay type: cell-based, human; details: read-out: LBC IC20 (nM) mHTT, 3 days compound treatment
Experimental: as §1, §2, §3, §4

[8] = tested on: mouse hepatocytes; assay: In vitro metabolic stability in mouse hepatocytes; assay type: in vitro ADME
Experimental: A. In Vitro Metabolic Stability in Hepatocyte
A compound's metabolic stability was assessed using mouse hepatocytes incubated with pre-defined concentration of test articles over several incubation period. The extent of metabolism was calculated from the disappearance of the test compound measured by liquid chromatography mass spectrometry (LC-MS), compared to that of 0-min control. After incubation, quench solutions including internal standards were added and analyzed by LC/MS. The elimination rate constant and intrinsic clearance (CLhepatocyte) values were calculated by linear regression of the compound elimination over the duration of incubation, normalized to the cell number in the given volume of incubation medium.

| SMILES | IC20 ([1]; class symbols) [nM] | IC20 [2] [nM] | M2-8 Cell viability [3] | LBC viability at IC20 [4] | IC50 [5] [nM] | iPSC viability at IC20 [6] | IC20 [7] [nM] | Mouse HepStability (CLhepatocyte) [8] | IC20 ([1]; numeric bounds) [nM] |
| --- | --- | --- | --- | --- | --- | --- | --- | --- | --- |
| C[C@@H](N[C@@H]1CCCc2c1[nH]c1ccc(Br)cc21)c1ccccc1 (single isomer, unassigned) [Compound 13] | < 100 | > 1000 | + (cell viability is greater than 50% at the concentration of 1000 nM) | * (cell viability is greater than 60% at the concentration of IC20) | ≤ 100 | + (cell viability is greater than 75% at the concentration of IC20) | 101 to 300 | – | – |
| COCC(N[C@@H]1CCCc2c1[nH]c1ccc(Br)cc21)c1ccc(C(C)(C)O)cc1 (single isomer, unassigned) [Compound 52] | < 100 | > 500 | + (cell viability is greater than 50% at the concentration of 1000 nM) | * (cell viability is greater than 60% at the concentration of IC20) | ≤ 100 | + (cell viability is greater than 75% at the concentration of IC20) | < 100 | – | – |
| OCc1ccc(CN[C@@H]2CCCc3c2[nH]c2ccc(Br)cc32)s1 [Compound 36, (R)-(5-(((6-bromo-2,3,4,9-tetrahydro-1H-carbazol-1-yl)amino)methyl)thiophen-2-yl)methanol] | < 100 | > 1000 | + (cell viability is greater than 50% at the concentration of 1000 nM) | * (cell viability is greater than 60% at the concentration of IC20) | ≤ 100 | + (cell viability is greater than 75% at the concentration of IC20) | 101 to 300 | C (CLhepatocyte >30 μl/min/10^6cells) | – |
| CC1(C)OB(c2ccc(CN[C@@H]3CCCc4c3[nH]c3ccc(Br)cc43)cc2)OC1(C)C [Compound 43, (R)-6-bromo-N-(4-(4,4,5,5-tetramethyl-1,3,2-dioxaborolan-2-yl)benzyl)-2,3,4,9-tetrahydro-1H-carbazol-1-amine] | < 100 | > 1000 | + (cell viability is greater than 50% at the concentration of 1000 nM) | * (cell viability is greater than 60% at the concentration of IC20) | ≤ 100 | + (cell viability is greater than 75% at the concentration of IC20) | 101 to 300 | – | – |
| CC(C)(O)c1ccc(CN[C@@H]2CCCc3c2[nH]c2ccc(Br)nc32)cc1 [Compound 63] | < 100 | > 500 | + (cell viability is greater than 50% at the concentration of 1000 nM) | * (cell viability is greater than 60% at the concentration of IC20) | ≤ 100 | + (cell viability is greater than 75% at the concentration of IC20) | < 100 | – | – |
| C[C@H](N[C@@H]1CCCc2c1[nH]c1ccc(Br)cc21)c1ccccc1 (single isomer, unassigned) [Compound 14] | < 100 | > 1000 | + (cell viability is greater than 50% at the concentration of 1000 nM) | * (cell viability is greater than 60% at the concentration of IC20) | ≤ 100 | + (cell viability is greater than 75% at the concentration of IC20) | < 100 | – | – |
| C=Cc1ccc2[nH]c3c(c2c1)CCC[C@H]3NCc1ccccc1 [Compound 45] | < 100 | > 1000 | + (cell viability is greater than 50% at the concentration of 1000 nM) | * (cell viability is greater than 60% at the concentration of IC20) | ≤ 100 | + (cell viability is greater than 75% at the concentration of IC20) | < 100 | – | – |
| COC(C)(C)c1ccc(CN[C@@H]2CCCc3c2[nH]c2ccc(Br)cc32)cc1 [Compound 48, (R)-6-bromo-N-(4-(2-methoxypropan-2-yl)benzyl)-2,3,4,9-tetrahydro-1H-carbazol-1-amine] | < 100 | > 500 | + (cell viability is greater than 50% at the concentration of 1000 nM) | * (cell viability is greater than 60% at the concentration of IC20) | ≤ 100 | + (cell viability is greater than 75% at the concentration of IC20) | < 100 | – | – |
| OB1OCc2cc(CN[C@@H]3CCCc4c3[nH]c3ccc(Br)cc43)ccc21 [Compound 37] | – | > 1000 | + (cell viability is greater than 50% at the concentration of 1000 nM) | * (cell viability is greater than 60% at the concentration of IC20) | 101 to 300 | – | 101 to 300 | B (CLhepatocyte 10-30 μl/min/10^6cells) | > 100 |
| CC(C)(O)c1ccc(CN[C@@H]2CCCc3c2[nH]c2ccc(Br)nc32)s1 [Compound 66] | < 100 | > 1000 | + (cell viability is greater than 50% at the concentration of 1000 nM) | * (cell viability is greater than 60% at the concentration of IC20) | ≤ 100 | + (cell viability is greater than 75% at the concentration of IC20) | < 100 | – | – |
| Oc1ccc(CN[C@@H]2CCCc3c2[nH]c2ccc(Br)cc32)cc1 [Compound 60, (R)-4-(((6-bromo-2,3,4,9-tetrahydro-1H-carbazol-1-yl)amino)methyl)phenol] | < 100 | > 1000 | + (cell viability is greater than 50% at the concentration of 1000 nM) | * (cell viability is greater than 60% at the concentration of IC20) | ≤ 100 | + (cell viability is greater than 75% at the concentration of IC20) | 101 to 300 | – | – |
| OCc1ccc(CN[C@@H]2CCCc3c2[nH]c2ccc(Br)nc32)cc1 [Compound 65] | < 100 | > 1000 | + (cell viability is greater than 50% at the concentration of 1000 nM) | * (cell viability is greater than 60% at the concentration of IC20) | ≤ 100 | + (cell viability is greater than 75% at the concentration of IC20) | 301 to 1000 | – | – |
